Like-named read-outs stand apart in the source and are kept apart here.
Legend:
[1] = test system: IL-4 induced STAT6 phosphorylation in spleenocytes; assay: IL-4 induced STAT6 phosphorylation in spleenocytes; type: cell-based, mouse; settings: wild type mice, inhibitor 1 h, 10 ng/ml IL-4 30 min
Protocol: (A) Single cell suspensions were prepared from the spleens of wild type mice. […] Cells were then stimulated with 10 ng/ml IL-4 for 30 min and the levels of phosphorylated STAT6 determined by immunoblotting. (B) As (A) except cells were stimulated with 10 ng/ml IL-2 and the levels of phosphorylated STAT5 determined. (C) CD8 T cells were expanded from the lymph nodes of wild type and JAK3 Cys905Ser knockin mice. Cells were rested in the absence of IL-2 for 60 min then incubated with the indicated concentrations of PF-06651600 for a further 30 min before stimulation with 10 ng/ml of IL-2 for 30 min. The levels of phosphorylated STAT5 and total ERK1/2 were then determined.
Cells were lysed directly into SDS sample buffer and aliquots run on 10% polyacrylamide gels using standard methods. Proteins were transferred onto nitrocellulose membranes, and specific proteins were detected by immunoblotting. […] Bands were detected using Clarity ECL reagents from BioRad and imaged on a Licor Odyssey Fc system. Quantification was carried out using Licor Image Studio software. After correction for the ERK1/2 levels to account for loading differences, percentage inhibition was calculated relative to the IL-4 stimulated condition. IC50 values were calculated using the same methods as for the in vitro IC50 values.

[2] = test system: TYK2; settings: read-out: In vitro IC50 TYK2, cited from earlier work
[3] = test system: IL-4 induced STAT6 phosphorylation in BMDMs from JAK3 Cys905Ser knockin mice; assay: IL-4 induced STAT6 phosphorylation in JAK3 Cys905Ser knockin BMDMs (immunoblot); type: cell-based, mouse; settings: for IC50: Mus musculus, BMDM, 0.5 h, 10 ng/ml IL-4 30 min, pSTAT6 Tyr641 immunoblot, two independent experiments
Protocol: (§1) Figure 3 Effect of JAK3 inhibitors on IL-4 induced STAT6 phosphorylation. BMDMs were isolated from wild type and JAK3 Cys905Ser knockin mice. Cells were incubated with the indicated concentrations of inhibitor before stimulation for 30 min with 10 ng/ml IL-4. Cells were lysed and the levels of STAT6 phosphorylated at Tyr641 were assessed by immunoblotting. Levels of ERK1/2 were determined as a loading control.
(§2) Bone marrow derived macrophages (BMDMs) were cultured as described. Briefly, bone marrow was flushed in PBS from the femurs and tibias of mice. Cells were cultured on bacterial grade plastic for 7 days at 37 °C, 5% CO2. Cells were then detached using Versene (Gibco), re-plated on tissue culture plastic in BMDM media (in DMEM supplemented with 10% heat inactivated FBS (Labtech), 2 mM L-glutamine, 100 U/ml penicillin G, 100 μg/ml streptomycin and 0.25 μg/ml amphotericin, 5 ng/ml M-CSF) and used within 48 h. Where indicated cells were stimulated with 10 ng/ml IL-4, 10 ng/ml GM-CSF, 10 ng/ml IL-10 or 10 ng/ml IFNβ. All cytokines were from PeproTech.
(§3) Cells were lysed directly into SDS sample buffer and aliquots run on 10% polyacrylamide gels using standard methods. Proteins were transferred onto nitrocellulose membranes, and specific proteins were detected by immunoblotting. Antibodies against tyrosine phosphorylated STATs were from Cell Signaling Technology (phospho-STAT1 #9167, phospho-STAT3 #9131, phospho-STAT5 #4322 and phospho-STAT6 #9361). The total ERK1/2 antibody used as a loading control was also from cell Signaling Technology (#4695). HRP-conjugated secondary antibodies were obtained from Pierce. Bands were detected using Clarity ECL reagents from BioRad and imaged on a Licor Odyssey Fc system. Quantification was carried out using Licor Image Studio software. After correction for the ERK1/2 levels to account for loading differences, percentage inhibition was calculated relative to the IL-4 stimulated condition. IC50 values were calculated using the same methods as for the in vitro IC50 values.

[4] = test system: IL-4 induced STAT6 phosphorylation in wild type BMDMs; assay: IL-4 induced STAT6 phosphorylation in wild type BMDMs (immunoblot); type: cell-based; settings: Mus musculus, BMDM, 0.5 h; 10 ng/ml IL-4 30 min, pSTAT6 Tyr641 immunoblot, two independent experiments
Protocol: as §1, §2, §3

[5] = target: MKK1 (Homo sapiens, UniProt Q02750); assay: Selectivity screen MKK1; type: biochemical; settings: 1 µM inhibitor, mean
Protocol: (§4) For the in vitro kinase assay, JAK3 (5–20 mU diluted in 50 mM Tris pH 7.5, 0.1 mM EGTA, 0.05% β-mercaptoethanol, 1 mg/ml BSA) was assayed against PDKtide ([…]) in a final volume of 25.5 µl containing 50 mM Tris pH 7.5, 0.1 mM EGTA, 0.05% β-mercaptoethanol, 100 µM substrate peptide, 10 mM magnesium acetate and 0.02 mM [33P-γ-ATP] (50–1000 cpm/pmole) and incubated for 30 min at room temperature. Assays were started by the addition of the ATP and stopped by addition of 5 µl of 0.5 M (3%) orthophosphoric acid and then harvested onto P81 Unifilter plates with a wash buffer of 50 mM orthophosphoric acid. To determine the Km for ATP, assays were run using 1, 5, 10, 20, 50, 100, 200, 400, 500 μM ATP and Km derived by non-linear regression fitting to the Michaelis–Menten equation v = Vmax[S]/(Km + [S]). IC50 values for inhibitors via non-linear regression using a parameter model: Y = Bottom + (Top–Bottom)/(1 + (IC50/X)^HillSlope). Non-linear regression was carried out in Prism (version 8). In vitro selectivity screen was carried out as described previously.

[6] = target: S6K1 (Homo sapiens, UniProt P23443); assay: Selectivity screen S6K1; type: biochemical; settings: 1 µM inhibitor, mean
Protocol: as §4

[7] = target: TBK1 (Homo sapiens, UniProt Q9UHD2); assay: Selectivity screen TBK1; type: biochemical; settings: 1 µM inhibitor, mean
Protocol: as §4

[8] = target: ERK1 (Homo sapiens, UniProt P27361); assay: Selectivity screen ERK1; type: biochemical; settings: 1 µM inhibitor, mean
Protocol: as §4

[9] = target: PINK (Tribolium castaneum, UniProt D6WMX4); assay: Selectivity screen PINK; type: biochemical; settings: 1 µM inhibitor, mean
Protocol: as §4

[10] = target: MLK3 (Homo sapiens, UniProt Q16584); assay: Selectivity screen MLK3; type: biochemical; settings: 1 µM inhibitor, mean
Protocol: as §4

[11] = target: CDK2-Cyclin A (Homo sapiens, UniProt P24941); assay: Selectivity screen CDK2-Cyclin A; type: biochemical; settings: 1 µM inhibitor, mean
[12] = target: PKCz (Homo sapiens, UniProt Q05513); assay: Selectivity screen PKCz; type: biochemical; settings: 1 µM inhibitor, mean
Protocol: as §4

[13] = target: NUAK1 (Homo sapiens, UniProt O60285); assay: Selectivity screen NUAK1; type: biochemical; settings: 1 µM inhibitor, mean
Protocol: as §4

[14] = target: ERK2 (Homo sapiens, UniProt P28482); assay: Selectivity screen ERK2; type: biochemical; settings: 1 µM inhibitor, mean
Protocol: as §4

[15] = target: PKA (Homo sapiens, UniProt P17612); assay: Selectivity screen PKA; type: biochemical; settings: 1 µM inhibitor, mean
Protocol: as §4

[16] = target: RSK2 (Homo sapiens, UniProt P51812); assay: Selectivity screen RSK2; type: biochemical; settings: 1 µM inhibitor, mean
Protocol: as §4

[17] = target: TrkA (Homo sapiens, UniProt P04629); assay: Selectivity screen TrkA; type: biochemical; settings: 1 µM inhibitor, mean
Protocol: as §4

[18] = target: MST2 (Homo sapiens, UniProt Q13188); assay: Selectivity screen MST2; type: biochemical; settings: 1 µM inhibitor, mean
Protocol: as §4

[19] = target: PKCγ (Homo sapiens, UniProt P05129); assay: Selectivity screen PKCγ; type: biochemical; settings: 1 µM inhibitor, mean
Protocol: as §4

TBK1, sequence (Q9UHD2 whole entry): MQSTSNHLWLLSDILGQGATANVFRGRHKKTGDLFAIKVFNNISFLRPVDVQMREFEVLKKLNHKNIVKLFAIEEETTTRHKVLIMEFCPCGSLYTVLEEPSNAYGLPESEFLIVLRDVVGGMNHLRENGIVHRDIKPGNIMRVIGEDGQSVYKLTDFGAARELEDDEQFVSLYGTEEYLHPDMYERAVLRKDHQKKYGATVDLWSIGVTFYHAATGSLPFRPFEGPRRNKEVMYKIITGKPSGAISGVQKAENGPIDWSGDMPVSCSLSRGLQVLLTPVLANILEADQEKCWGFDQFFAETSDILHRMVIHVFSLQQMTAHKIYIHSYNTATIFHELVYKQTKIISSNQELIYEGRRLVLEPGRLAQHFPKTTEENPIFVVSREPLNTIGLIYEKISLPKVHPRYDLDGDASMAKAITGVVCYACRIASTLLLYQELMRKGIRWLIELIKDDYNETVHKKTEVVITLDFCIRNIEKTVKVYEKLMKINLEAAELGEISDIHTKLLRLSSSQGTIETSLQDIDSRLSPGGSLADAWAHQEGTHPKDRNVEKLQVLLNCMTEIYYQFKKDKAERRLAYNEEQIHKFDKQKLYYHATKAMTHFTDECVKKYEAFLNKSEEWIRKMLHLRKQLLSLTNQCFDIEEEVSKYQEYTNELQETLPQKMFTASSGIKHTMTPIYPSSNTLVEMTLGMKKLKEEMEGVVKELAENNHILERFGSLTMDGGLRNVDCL
PKCz, sequence (Q05513 whole entry): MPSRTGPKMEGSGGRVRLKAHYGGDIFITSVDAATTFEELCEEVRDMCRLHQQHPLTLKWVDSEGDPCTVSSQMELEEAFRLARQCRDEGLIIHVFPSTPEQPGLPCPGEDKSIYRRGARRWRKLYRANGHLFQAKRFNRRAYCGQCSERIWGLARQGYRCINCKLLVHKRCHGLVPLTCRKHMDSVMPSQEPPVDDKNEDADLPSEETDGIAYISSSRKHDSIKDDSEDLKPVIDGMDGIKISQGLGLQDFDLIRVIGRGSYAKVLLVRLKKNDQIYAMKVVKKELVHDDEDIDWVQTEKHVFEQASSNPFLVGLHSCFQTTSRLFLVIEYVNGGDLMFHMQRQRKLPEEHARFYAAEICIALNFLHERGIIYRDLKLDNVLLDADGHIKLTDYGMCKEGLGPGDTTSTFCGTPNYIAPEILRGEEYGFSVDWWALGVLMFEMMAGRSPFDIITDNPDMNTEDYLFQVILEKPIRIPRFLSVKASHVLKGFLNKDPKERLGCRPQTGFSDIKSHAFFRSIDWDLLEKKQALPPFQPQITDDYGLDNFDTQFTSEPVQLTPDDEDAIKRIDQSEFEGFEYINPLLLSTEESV
PINK, sequence (D6WMX4 6-570): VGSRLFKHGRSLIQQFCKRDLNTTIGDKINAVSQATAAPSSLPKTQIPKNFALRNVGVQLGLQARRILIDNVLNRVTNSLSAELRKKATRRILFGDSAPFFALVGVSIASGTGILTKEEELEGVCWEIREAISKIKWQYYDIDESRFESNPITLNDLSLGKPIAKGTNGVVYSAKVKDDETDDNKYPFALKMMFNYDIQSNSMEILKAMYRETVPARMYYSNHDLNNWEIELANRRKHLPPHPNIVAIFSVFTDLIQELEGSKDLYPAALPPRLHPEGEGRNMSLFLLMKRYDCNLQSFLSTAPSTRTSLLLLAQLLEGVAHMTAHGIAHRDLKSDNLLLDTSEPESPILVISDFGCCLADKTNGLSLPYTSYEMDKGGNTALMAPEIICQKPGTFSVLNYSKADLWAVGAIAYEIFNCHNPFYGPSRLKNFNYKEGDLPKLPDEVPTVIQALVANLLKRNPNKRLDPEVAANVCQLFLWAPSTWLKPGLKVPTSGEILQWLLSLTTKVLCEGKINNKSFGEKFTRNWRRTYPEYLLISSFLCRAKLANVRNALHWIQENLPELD
ERK1, sequence (P27361 whole entry): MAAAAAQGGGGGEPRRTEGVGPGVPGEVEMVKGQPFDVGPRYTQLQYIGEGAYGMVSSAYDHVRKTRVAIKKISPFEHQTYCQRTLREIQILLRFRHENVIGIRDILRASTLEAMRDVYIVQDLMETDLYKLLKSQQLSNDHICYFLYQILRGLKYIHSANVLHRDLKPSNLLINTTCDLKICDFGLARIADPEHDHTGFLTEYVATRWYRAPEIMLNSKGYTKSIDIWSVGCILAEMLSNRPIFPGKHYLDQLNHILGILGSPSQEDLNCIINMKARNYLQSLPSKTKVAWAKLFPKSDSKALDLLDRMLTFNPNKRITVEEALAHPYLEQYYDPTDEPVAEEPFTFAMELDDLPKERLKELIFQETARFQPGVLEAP
MLK3, sequence (Q16584 whole entry): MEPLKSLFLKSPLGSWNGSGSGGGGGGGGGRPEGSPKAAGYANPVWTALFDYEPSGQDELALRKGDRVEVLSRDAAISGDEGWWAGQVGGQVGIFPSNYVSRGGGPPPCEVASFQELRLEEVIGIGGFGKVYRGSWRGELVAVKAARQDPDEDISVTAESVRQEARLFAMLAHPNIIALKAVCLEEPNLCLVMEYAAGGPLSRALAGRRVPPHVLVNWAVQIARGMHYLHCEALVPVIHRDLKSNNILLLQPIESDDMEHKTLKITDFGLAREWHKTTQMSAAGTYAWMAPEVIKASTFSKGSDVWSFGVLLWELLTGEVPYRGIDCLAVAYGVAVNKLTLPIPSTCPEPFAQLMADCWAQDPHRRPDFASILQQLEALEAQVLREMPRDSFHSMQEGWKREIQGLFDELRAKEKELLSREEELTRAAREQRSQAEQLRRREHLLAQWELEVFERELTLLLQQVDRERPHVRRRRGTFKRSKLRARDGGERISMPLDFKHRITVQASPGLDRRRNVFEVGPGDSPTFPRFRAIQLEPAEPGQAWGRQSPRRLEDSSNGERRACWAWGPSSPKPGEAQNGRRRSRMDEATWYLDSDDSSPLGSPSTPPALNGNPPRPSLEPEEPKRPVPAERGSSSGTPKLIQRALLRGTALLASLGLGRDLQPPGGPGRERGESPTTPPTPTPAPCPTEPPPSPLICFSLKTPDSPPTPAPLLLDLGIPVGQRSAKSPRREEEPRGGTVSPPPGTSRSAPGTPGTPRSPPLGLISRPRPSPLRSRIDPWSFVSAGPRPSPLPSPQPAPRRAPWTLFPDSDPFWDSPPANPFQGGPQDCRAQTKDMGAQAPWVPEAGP
NUAK1, sequence (O60285 whole entry): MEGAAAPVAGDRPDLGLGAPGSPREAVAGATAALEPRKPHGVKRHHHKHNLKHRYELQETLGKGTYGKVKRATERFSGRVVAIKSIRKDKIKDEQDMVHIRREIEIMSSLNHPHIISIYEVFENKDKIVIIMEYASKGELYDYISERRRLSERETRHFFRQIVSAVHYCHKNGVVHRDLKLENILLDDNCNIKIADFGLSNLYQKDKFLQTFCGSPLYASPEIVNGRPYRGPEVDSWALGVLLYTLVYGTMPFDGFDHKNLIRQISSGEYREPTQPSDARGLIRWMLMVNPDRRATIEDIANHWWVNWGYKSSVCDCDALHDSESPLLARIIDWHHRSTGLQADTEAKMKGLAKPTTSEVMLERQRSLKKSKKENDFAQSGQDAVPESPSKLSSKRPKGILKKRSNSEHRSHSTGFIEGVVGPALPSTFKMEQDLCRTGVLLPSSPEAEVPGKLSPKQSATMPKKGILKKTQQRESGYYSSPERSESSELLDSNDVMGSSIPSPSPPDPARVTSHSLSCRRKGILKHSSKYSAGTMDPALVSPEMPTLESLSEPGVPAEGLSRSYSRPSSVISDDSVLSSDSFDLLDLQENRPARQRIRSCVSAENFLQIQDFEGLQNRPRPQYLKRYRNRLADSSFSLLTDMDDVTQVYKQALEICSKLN
MST2, sequence (Q13188 whole entry): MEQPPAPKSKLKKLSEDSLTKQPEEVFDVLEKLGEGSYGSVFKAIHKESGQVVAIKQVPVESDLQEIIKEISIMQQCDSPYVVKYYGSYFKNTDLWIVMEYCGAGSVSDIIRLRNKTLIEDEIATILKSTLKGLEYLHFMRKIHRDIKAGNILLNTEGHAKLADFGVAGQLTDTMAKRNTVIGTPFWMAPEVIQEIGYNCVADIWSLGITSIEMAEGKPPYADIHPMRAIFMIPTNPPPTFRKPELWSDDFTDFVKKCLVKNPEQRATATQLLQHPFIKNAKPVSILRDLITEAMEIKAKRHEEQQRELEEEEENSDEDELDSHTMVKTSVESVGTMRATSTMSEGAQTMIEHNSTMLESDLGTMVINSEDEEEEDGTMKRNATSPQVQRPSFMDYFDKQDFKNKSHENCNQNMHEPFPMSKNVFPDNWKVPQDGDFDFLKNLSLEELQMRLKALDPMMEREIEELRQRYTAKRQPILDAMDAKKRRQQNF
MKK1, sequence (Q02750 whole entry): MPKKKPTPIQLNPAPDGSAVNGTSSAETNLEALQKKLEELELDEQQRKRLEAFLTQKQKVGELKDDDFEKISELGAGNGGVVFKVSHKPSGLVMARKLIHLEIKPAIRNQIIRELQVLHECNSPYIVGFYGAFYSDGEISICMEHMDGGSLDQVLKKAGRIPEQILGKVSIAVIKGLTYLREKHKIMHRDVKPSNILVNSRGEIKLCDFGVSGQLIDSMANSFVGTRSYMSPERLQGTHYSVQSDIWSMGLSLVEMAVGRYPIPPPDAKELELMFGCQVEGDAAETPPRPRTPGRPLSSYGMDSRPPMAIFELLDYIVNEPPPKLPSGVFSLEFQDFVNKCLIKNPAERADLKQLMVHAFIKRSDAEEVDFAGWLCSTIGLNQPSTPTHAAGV
ERK2, sequence (P28482 whole entry): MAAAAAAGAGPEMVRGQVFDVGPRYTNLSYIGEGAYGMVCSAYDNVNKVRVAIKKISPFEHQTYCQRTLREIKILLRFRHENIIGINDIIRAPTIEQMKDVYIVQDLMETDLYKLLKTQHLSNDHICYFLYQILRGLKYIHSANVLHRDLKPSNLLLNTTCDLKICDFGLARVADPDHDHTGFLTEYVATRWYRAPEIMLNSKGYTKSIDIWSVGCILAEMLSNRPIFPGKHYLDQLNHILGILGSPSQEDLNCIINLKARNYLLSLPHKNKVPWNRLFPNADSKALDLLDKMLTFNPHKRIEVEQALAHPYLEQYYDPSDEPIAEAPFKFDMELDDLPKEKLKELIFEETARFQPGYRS

C=CC(=O)N1C[C@H](Nc2ncnc3[nH]ccc23)CC[C@@H]1C [PF-06651600, 1-((2S,5R)-5-((7H-Pyrrolo[2,3-d]pyrimidin-4-yl)amino)-2-methylpiperidin-1-yl)prop-2-en-1-one, reference compound]
block of IL-4 induced STAT6 phosphorylation in spleenocytes [1]: able to block | IC50 ([2]; ATP 12 μM): > 10000 nM | IC50 [3]: > 10000 nM | IC50 [4]: 560 nM

C=CC(=O)Nc1cccc(CNc2nc(Nc3ccc(N4CCN(C)CC4)cc3OC)ncc2Cl)c1 [TL6-144]
activity remaining in the presence of the inhibitor: MKK1 [5]: 79 | activity remaining in the presence of the inhibitor: S6K1 [6]: 90 | activity remaining in the presence of the inhibitor: TBK1 [7]: 78 | activity remaining in the presence of the inhibitor: ERK1 [8]: 94 | activity remaining in the presence of the inhibitor: PINK [9]: 107 | activity remaining in the presence of the inhibitor: MLK3 [10]: 31 | IC50 ([2]; ATP 25 μM): […] | activity remaining in the presence of the inhibitor: CDK2-Cyclin A [11]: 87 | activity remaining in the presence of the inhibitor: PKCz [12]: 88 | activity remaining in the presence of the inhibitor: NUAK1 [13]: 4 | activity remaining in the presence of the inhibitor: ERK2 [14]: 106 | activity remaining in the presence of the inhibitor: PKA [15]: 104 | activity remaining in the presence of the inhibitor: RSK2 [16]: 73 | activity remaining in the presence of the inhibitor: TrkA [17]: 59 | inhibition of IL-4 induced STAT6 phosphorylation, JAK3 Cys905Ser knockin BMDMs ([3]; 10 μM inhibitor): did not inhibit | IC50 [3]: > 10000 nM | activity remaining in the presence of the inhibitor: MST2 [18]: 83 | IC50 [4]: 550 nM | activity remaining in the presence of the inhibitor: PKCγ [19]: 111

C=CC(=O)Nc1cccc(CNc2nc(Nc3ccc(N4CCOCC4)cc3)ncc2Cl)c1 [TL8-52]
activity remaining in the presence of the inhibitor: MKK1 [5]: 84 | activity remaining in the presence of the inhibitor: S6K1 [6]: 87 | activity remaining in the presence of the inhibitor: TBK1 [7]: 11 | activity remaining in the presence of the inhibitor: ERK1 [8]: 94 | activity remaining in the presence of the inhibitor: PINK [9]: 110 | activity remaining in the presence of the inhibitor: MLK3 [10]: 3 | block of IL-4 induced STAT6 phosphorylation in spleenocytes [1]: able to block | IC50 ([2]; ATP 25 μM): 320 nM | activity remaining in the presence of the inhibitor: CDK2-Cyclin A [11]: 84 | activity remaining in the presence of the inhibitor: PKCz [12]: 98 | activity remaining in the presence of the inhibitor: NUAK1 [13]: 3 | activity remaining in the presence of the inhibitor: ERK2 [14]: 97 | activity remaining in the presence of the inhibitor: PKA [15]: 74 | activity remaining in the presence of the inhibitor: RSK2 [16]: 53 | activity remaining in the presence of the inhibitor: TrkA [17]: 23 | IC50 [3]: 540 nM | activity remaining in the presence of the inhibitor: MST2 [18]: 48 | IC50 [4]: 100 nM | activity remaining in the presence of the inhibitor: PKCγ [19]: 109

From paper PMC8115619, “Generation of a chemical genetic model for JAK3” (Scientific Reports, 2021)
